Assay [1] relates to German cockroaches (Blatella Germanica). Nature of the assay: Cockroach repellency screening on partially treated formica surface (Example 2). The assay is classed as in vivo. The settings on record: 20 mg/m^2 on formica; for Percentage Dead / Percentage Present, Treated Section / Percentage Present, Untreated Section / Percentage Present, Treated Section, Average / Percentage Present, Untreated Section, Average: cockroaches; for Percentage Present, Treated Section, Average / Percentage Present, Untreated Section, Average: average of days 1, 2 and 3; for Number of Cockroaches present, Treated Section / Number of Cockroaches present, Untreated Section / Number of Cockroaches, Dead: single replicates (n = 20); for Number of Cockroaches present, Treated Section, Total / Number of Cockroaches present, Untreated Section, Total / Number of Cockroaches, Dead, Total: total of 4 replicates (80). The method, then:
The effectiveness of compounds of formula I as an insect repellent was determined using German cockroaches exposed to a formica surface partially treated/partially untreated with a test compound of formula I. The study was conducted in an air conditioned laboratory at a temperature of 22°±2° C. under a normal day/night cycle, using German cockroaches (Blatella Germanica) of mixed sex and age. The study was conducted over a 3 day period and the repellent effectiveness assessed 1, 2 and 3 days after cockroach introduction. A rectangle of formica 40 cm×30 cm was treated at 20 mg/m^2 with a test compound of formula I. This was achieved by soaking a paper wipe (Rag on a Roll ca 20 cm×20 cm) in a solution of the test compound in ethanol, squeezing out the excess liquid and wiping over the surface to give the required coverage. This was checked by weighing the cloth after application. The surface was allowed to dry. A similar rectangle was wiped with ethanol alone (untreated surface). The treated formica rectangle was placed on the bench and a plastic container was placed on the rectangle. This had been treated with fluon to prevent cockroach escape. Two sheets of formica (10 cm×10 cm) were placed on the formica, one on the treated surface and one on the untreated surface. This acted as a cockroach harbourage. The formica sheet to be used in the treated section was treated at the same rate as the treated formica. The formica was placed on two 1 cm high bottle tops to allow cockroaches access under the formica. 20 German cockroaches were added (5 adults and 15 nymphs) to the centre of the formica. No food and water was supplied for these cockroaches. At 1, 2 and 3 days after cockroach introduction the number of cockroaches under each harbourage was counted. After each count the harbourage position was change to avoid the possibility of […] were replaced and new cockroaches were added to replace any dead cockroaches. The above was repeated 3 times to provide a total of 4 replicates.

The test system of assay [2] is Black Ants (Ochetellus sp). Nature of the assay: Ant repellency on half-treated formica (Example 4). It is filed as in vivo. The settings on record: ants, 20 mg/m^2 on formica. The method, then:
The effectiveness of compound 2 (example 1) as an insect repellent was determined using ants exposed to a formica surface partially treated/partially untreated with compound 2, and was directly compared to the repellency of the well known insect repellents Farnesol and Dihydrofarnesal.
The study was conducted in an air conditioned laboratory at a temperature of 22°±2° C. under a normal day/night cycle, using Black Ants (Ochetellus sp) of mixed sex and age. The study ws conducted over a 3 day period and the repellent effectiveness assessed 1, 2 and 3 days after ant introduction.
One half of a rectangle of formica 40 cm×30 cm was treated at 20 mg/m^2 with the test compounds. This was achieved by soaking a paper wipe (Rag On A Roll approximately 20 cm×20 cm) in a solution of the test compound in ethanol, squeezing out the excess liquid and wiping over the surface to give the required coverage. This was checked by weighing the cloth after application. The surface was allowed to dry. The other half was wiped with ethanol alone (untreated surface).
The treated formica rectangle was placed on the bench and a glass ring (diameter 20 cm) was placed on the rectangle. This had been treated with fluon to prevent ant escape.
A small plastic container 2 cm in diameter was placed on the formica, one on the treated surface and one on the untreated surface. The plastic container placed on the treated surface had repellent applied in the same way as the treated formica. The plastic container on the untreated surface was wiped with ethanol.
24 hours after treatment (1 day) 20 ants were added to the centre of the formica. No food and water was supplied for these ants. 2 hours after this the number of ants on the treated and untreated surfaces was counted.
The above was repeated 3 times to provide a total of 4 replicates.
The above was repeated at 2 days and 3 days. New ants were used at each time period.

Setting [3] is: 1 day after cockroach introduction.
Where [4] appears, read: 2 days after cockroach introduction.
Where [5] appears, read: 3 days after cockroach introduction.

Structures are written as SMILES. “And” between values parts separate entries of the source, which are not always exact repeats. Identical values can stand only once.

As to `CC1CCC(C(C)C)C(C(=O)N(C)C)C1` (centres unmarked) [Compound 5, N,N-dimethyl-p-menthane-3-carboxamide], in assay [1] (1 day after treatment), the “Percentage Dead” value came to 0%; the “Percentage Present, Treated Section” value was 15.0%; the “Percentage Present, Untreated Section” value turned out to be 85.0%. In addition, in assay [1] (2 days after treatment), the “Percentage Dead” value amounted to 1.2%; the “Percentage Present, Treated Section” value stood at 10.0%; the “Percentage Present, Untreated Section” value came to 88.8%. Further, in assay [1] (3 days after treatment), the “Percentage Dead” value worked out at 1.2%; the “Percentage Present, Treated Section” value is 15.0%; the “Percentage Present, Untreated Section” value amounted to 83.8%. Also, in assay [1], the “Percentage Present, Treated Section, Average” value is reported as 13.3% and the “Percentage Present, Untreated Section, Average” value came out at 85.9%.
As for `CNC(=O)C1CC(C)CCC1C(C)C` (centres unmarked) [Compound 1, N-methyl-p-menthane-3-carboxamide], in assay [1] (setting [3]), the “Number of Cockroaches present, Treated Section” value is 5 and 3 and 7 and 0; the “Number of Cockroaches present, Untreated Section” value was 15 and 17 and 13 and 20; the “Number of Cockroaches, Dead” value came out at 0; the “Number of Cockroaches present, Treated Section, Total” value was 15. Further, in assay [1] (setting [3]), the “Number of Cockroaches present, Untreated Section, Total” value (“Number … Untreated Section, Total” below) was 65 and the “Number of Cockroaches, Dead, Total” value turned out to be 0. Moreover, in assay [1] (setting [4]), the “Number of Cockroaches present, Treated Section” value was 5 (2×) and 3 and 0; the “Number of Cockroaches present, Untreated Section” value was 15 and 17 and 14 and 20; the “Number of Cockroaches, Dead” value was 0 (3×) and 1; the “Number of Cockroaches present, Treated Section, Total” value amounted to 13. Moreover, in assay [1] (setting [4]), the “Number … Untreated Section, Total” value stood at 66 and the “Number of Cockroaches, Dead, Total” value was 1. Moreover, in assay [1] (setting [5]), the “Number of Cockroaches present, Treated Section” value is 4 (2×) and 3 and 0; the “Number of Cockroaches present, Untreated Section” value was 16 (3×) and 20; the “Number of Cockroaches, Dead” value was 0 (3×) and 1; the “Number of Cockroaches present, Treated Section, Total” value is listed as 11. In assay [1] (setting [5]), the “Number … Untreated Section, Total” value amounted to 68 and the “Number of Cockroaches, Dead, Total” value was determined as 1. In assay [1] (1 day after treatment), the “Percentage Dead” value is listed as 0%; the “Percentage Present, Treated Section” value was found to be 18.7%; the “Percentage Present, Untreated Section” value worked out at 81.3%. In addition, in assay [1] (2 days after treatment), the “Percentage Dead” value is listed as 1.2%; the “Percentage Present, Treated Section” value was 16.3%; the “Percentage Present, Untreated Section” value was determined as 82.5%. Further, in assay [1] (3 days after treatment), the “Percentage Dead” value is listed as 1.2%; the “Percentage Present, Treated Section” value was 13.8%; the “Percentage Present, Untreated Section” value worked out at 85.0%. Further, in assay [1], the “Percentage Present, Treated Section, Average” value was found to be 16.3% and the “Percentage Present, Untreated Section, Average” value is 82.9%.
On to `CCN(CC)C(=O)C1CC(C)CCC1C(C)C` (centres unmarked) [Compound 6, N,N-diethyl-p-menthane-3-carboxamide], for which, in assay [1] (1 day after treatment), the “Percentage Dead” value came out at 0%; the “Percentage Present, Treated Section” value came out at 11.3%; the “Percentage Present, Untreated Section” value was found to be 88.7%. Besides, in assay [1] (2 days after treatment), the “Percentage Dead” value is listed as 0%; the “Percentage Present, Treated Section” value worked out at 13.8%; the “Percentage Present, Untreated Section” value is on record as 86.2%. Also, in assay [1] (3 days after treatment), the “Percentage Dead” value is on record as 2.5%; the “Percentage Present, Treated Section” value was determined as 6.3%; the “Percentage Present, Untreated Section” value is on record as 91.2%. Moreover, in assay [1], the “Percentage Present, Treated Section, Average” value came to 10.5% and the “Percentage Present, Untreated Section, Average” value came to 88.7%.
For the compound `CC1CCC(C(C)C)C(C(=O)Nc2ccccc2)C1` (centres unmarked) [Compound 4, N-phenyl-p-menthane-3-carboxamide], in assay [1] (1 day after treatment), the “Percentage Dead” value is given as 0%; the “Percentage Present, Treated Section” value is reported as 46.3%; the “Percentage Present, Untreated Section” value stood at 53.7%. Besides, in assay [1] (2 days after treatment), the “Percentage Dead” value was 0%; the “Percentage Present, Treated Section” value was determined as 35.0%; the “Percentage Present, Untreated Section” value is on record as 65.0%. Besides, in assay [1] (3 days after treatment), the “Percentage Dead” value came to 1.2%; the “Percentage Present, Treated Section” value stood at 12.5%; the “Percentage Present, Untreated Section” value was 86.3%. In assay [1], the “Percentage Present, Treated Section, Average” value was 31.3% and the “Percentage Present, Untreated Section, Average” value is 68.3%.
As for `CCCNC(=O)C1CC(C)CCC1C(C)C` (centres unmarked) [Compound 3, N-propyl-p-menthane-3-carboxamide], in assay [1] (1 day after treatment), the “Percentage Dead” value is given as 0%; the “Percentage Present, Treated Section” value was found to be 16.3%; the “Percentage Present, Untreated Section” value was 83.7%. In assay [1] (2 days after treatment), the “Percentage Dead” value is reported as 1.2%; the “Percentage Present, Treated Section” value is recorded as 6.3%; the “Percentage Present, Untreated Section” value is listed as 92.5%. Further, in assay [1] (3 days after treatment), the “Percentage Dead” value is reported as 0%; the “Percentage Present, Treated Section” value worked out at 6.3%; the “Percentage Present, Untreated Section” value was determined as 93.7%. In addition, in assay [1], the “Percentage Present, Treated Section, Average” value worked out at 9.6% and the “Percentage Present, Untreated Section, Average” value is listed as 90.0%.
Turning to `CC(C)=CCC/C(C)=C/CCC(C)CC=O` (centres unmarked) [Dihydrofarnesal, reference compound], in assay [2] (1 day after treatment), the “Percentage Dead” value is recorded as 0%; the “Percentage Present, Treated Section” value is reported as 20.0%; the “Percentage Present, Untreated Section” value is given as 80.0%. In addition, in assay [2] (2 days after treatment), the “Percentage Dead” value was 0%; the “Percentage Present, Treated Section” value is listed as 21.2%; the “Percentage Present, Untreated Section” value amounted to 78.8%. Also, in assay [2] (3 days after treatment), the “Percentage Dead” value is 0%; the “Percentage Present, Treated Section” value is 12.5%; the “Percentage Present, Untreated Section” value is 87.5%. Besides, in assay [2] (average of days 1, 2 and 3), the “Percentage Dead, Average” value was found to be 0%; the “Percentage Present, Treated Section, Average” value turned out to be 17.9%; the “Percentage Present, Untreated Section, Average” value stood at 82.1%. In addition, the “Percentage Present, Treated Section, Average” value in assay [2] (average of days 1, 2 and 3, listed as Dihydrofarnesol) was “approximately 17%”.

The values above are taken from patent publication US20040028714A1, “Composition having insect repellent characteristics” (priority 2000, published 2004).
